The nature of experiment [1]: Average in vitro cytotoxicity was calculated from all cell lines tested,. Type of experiment: functional.
Experiment [2] has as its system M14. As to the kind of experiment: Tested for the in vitro cytotoxicity against M-14 melanoma. The experiment is classed as functional, Homo sapiens.
The test system of experiment [3] is MCF7. As to the kind of experiment: Tested for the in vitro cytotoxicity against MCF-7 breast cancer cell line. Type of experiment: functional, Homo sapiens.
Experiment [4] concerns DU-145. Put plainly: Tested for the in vitro cytotoxicity against DU-145 prostate cancer cell line. The experiment is classed as functional, Homo sapiens.
The target in experiment [5] is DNA topoisomerase II (Homo sapiens) (UniProt P11388+Q02880). Put plainly: Tested for the inhibition of DNA topoisomerase II. Type of experiment: protein assay.
The subject of experiment [6] is MOLT-4. As to the kind of experiment: Tested for the in vitro cytotoxicity against MOLT-4 leukemia cell line. Type of experiment: functional, Homo sapiens.
For experiment [7], the system named is NCI-H23. As to the kind of experiment: Tested for the in vitro cytotoxicity against NCI-H23 non-small cell lung cancer cell line. The experiment is classed as functional, Homo sapiens.
The subject of experiment [8] is ACHN. As to the kind of experiment: Tested for the in vitro cytotoxicity against ACHN renal cancer cell line. The experiment is classed as functional, Homo sapiens.
For experiment [9], the system named is SF-295. Put plainly: Tested for the in vitro cytotoxicity against SF-295 CNS tumor cell lines. Type of experiment: functional, Homo sapiens.
For experiment [10], the system named is HCC 2998. Put plainly: Tested for the in vitro cytotoxicity against HCC2998 colon cancer cell lines. The experiment is classed as functional, Homo sapiens.
Experiment [11] relates to KB. Put plainly: Tested for the cellular protein DNA complex formation in KB cells at concentration of 25 uM. The experiment is classed as functional, Homo sapiens.
Experiment [12] can be described thus: Average in vitro cytotoxicity was calculated from all cell lines tested, activity expressed as average log TGI50. Type of experiment: functional. The following applies: read-out: Log TGI (converted).
For experiment [13], the system named is OVCAR-8. As to the kind of experiment: Tested for the in vitro cytotoxicity against OVCAR-8 ovarian cancer cell lines,. The experiment is classed as functional, Homo sapiens.
Experiment [14] deals with KB. Put plainly: Tested for the cellular protein DNA complex formation in KB cells at the concentration of 2.5 uM. The experiment is classed as functional, Homo sapiens.
Experiment [15] has as its system KB. Put plainly: Tested for the cellular protein DNA complex formation in KB cells at concentration of 2.5 uM. Type of experiment: functional, Homo sapiens.
Experiment [16] can be described thus: Average in vitro cytotoxicity was calculated from all cell lines tested. Type of experiment: functional.
Experiment [17] concerns KB. As to the kind of experiment: Tested for the cytotoxicity against KB cells; ID50/LD50 = 0.08/>10. Type of experiment: functional, cell-based. The settings on record: Homo sapiens.
Experiment [18] concerns KB. Put plainly: Tested for the cellular protein DNA complex formation in KB cells at the concentration of 2.5 uM.
Experiment [19] has as its system KB. Put plainly: Tested for the cytotoxicity against KB-7d cellsTested for the cytotoxicity against KB cells; ID50/LD50 = 0.2/>10. The experiment is classed as functional, cell-based.

The source of these data is ChEMBL document CHEMBL1129858, “Antitumor agents. 1771. Design, syntheses, and biological evaluation of novel etoposide analogs bearing pyrrolecarboxamidino group as DNA topoisomerase II inhibitors” (1997).

As to `COc1cc([C@@H]2c3cc4c(cc3[C@@H](O[C@@H]3O[C@@H]5CO[C@@H](C)O[C@H]5[C@H](O)[C@H]3O)[C@H]3COC(=O)[C@H]23)OCO4)cc(OC)c1O` [ETOPOSIDE], the GI50 – broadly, the concentration giving 50% growth inhibition – in experiment [1] was 9770 nM; in experiment [2] (Homo sapiens, M14) it was 813 nM; in [3] (Homo sapiens, MCF7) it was 4370 nM; in experiment [4] (Homo sapiens, DU-145) it was 851 nM; in experiment [6] (Homo sapiens, MOLT-4) it was 1020 nM; in [7] (Homo sapiens, NCI-H23), 8320 nM. The GI50 in experiment [8] (Homo sapiens, ACHN) was 871 nM; in experiment [9] (Homo sapiens, SF-295), 10000 nM; in [10] (Homo sapiens, HCC 2998), 18200 nM; in experiment [13] (Homo sapiens, OVCAR-8), 16600 nM. This compound returned an IC100 in experiment [5] of 100 µM. In addition, the Activity in [11] and in experiment [14] was 100% throughout. The TGI (as a rule, the concentration giving total growth inhibition) in experiment [12] is 77600 nM.

As for `COc1cc([C@@H]2c3cc4c(cc3[C@@H](Nc3ccc(NC(=O)c5cc([N+](=O)[O-])cn5C)cc3)[C@H]3COC(=O)[C@H]23)OCO4)cc(OC)c1O` [listing 1 of 3 here], the GI50 is 123 nM in experiment [1]; 45.7 nM in experiment [2] (Homo sapiens, M14); less than 10 nM in experiment [3] (Homo sapiens, MCF7); 17 nM in [4] (Homo sapiens, DU-145); less than 10 nM in experiment [6] (Homo sapiens, MOLT-4); 49 nM in experiment [7] (Homo sapiens, NCI-H23). In addition, the GI50 in experiment [8] (Homo sapiens, ACHN) was 11.8 nM; in [9], 51.3 nM; in [10] (Homo sapiens, HCC 2998) it was 224 nM; in [13] (Homo sapiens, OVCAR-8), 97.7 nM. The Activity in experiment [11] was determined as 100%; in experiment [15], 225%. For the same compound, in [12], the TGI is 1950 nM.

For the compound `COc1cc([C@@H]2c3cc4c(cc3[C@@H](NCCNCCO)[C@H]3COC(=O)[C@H]23)OCO4)cc(OC)c1O` [listing 1 of 2 here], the GI50 in experiment [1] was 1350 nM; in experiment [2] (Homo sapiens, M14), 3980 nM; in [3], 38.9 nM; in experiment [4] (Homo sapiens, DU-145), 2750 nM; in [6] it was less than 10 nM; in experiment [7] (Homo sapiens, NCI-H23) it was 1320 nM. In addition, the GI50 in experiment [8] is 2340 nM; in [9], 178 nM; in experiment [10] (Homo sapiens, HCC 2998), 1260 nM; in experiment [13] (Homo sapiens, OVCAR-8), 2630 nM. Further, in experiment [16], the LC50 (as a rule, the concentration lethal to half of the exposed cells or organisms) was 66100 nM. In addition, the TGI in experiment [12] was 12000 nM.

`COc1cc([C@@H]2c3cc4c(cc3[C@@H](Nc3ccc(NC(=O)c5cc([N+](=O)[O-])cn5C)cc3)[C@H]3COC(=O)[C@H]23)OCO4)cc(OC)c1O` [listing 2 of 3 here] displayed an IC100 in experiment [5] of 12.5 µM.

On to `COc1cc([C@@H]2c3cc4c(cc3[C@@H](NC(=O)NO)[C@H]3COC(=O)[C@H]23)OCO4)cc(OC)c1O`, for which the GI50 in experiment [1] is 9770 nM; in [2] (Homo sapiens, M14) it was 37200 nM; in experiment [3] (Homo sapiens, MCF7) it was 7760 nM; in [4] (Homo sapiens, DU-145), 7240 nM; in experiment [6] (Homo sapiens, MOLT-4), 4900 nM; in [7] (Homo sapiens, NCI-H23), 9330 nM. For the same compound, the GI50 was 6030 nM in experiment [8] (Homo sapiens, ACHN); 5010 nM in experiment [9] (Homo sapiens, SF-295); 4070 nM in [10] (Homo sapiens, HCC 2998); 34700 nM in experiment [13] (Homo sapiens, OVCAR-8). Besides, the LC50 in experiment [16] is 100000 nM. In [12], the TGI was 93300 nM.

Turning to `COc1cc([C@@H]2c3cc4c(cc3[C@@H](Nc3ccc(NC(=O)c5cc(NC(=O)c6cc([N+](=O)[O-])cn6C)cn5C)cc3)[C@H]3COC(=O)[C@H]23)OCO4)cc(OC)c1O`, the GI50 is 1170 nM in experiment [1]; 5500 nM in experiment [2] (Homo sapiens, M14); 47.9 nM in experiment [3] (Homo sapiens, MCF7); 372 nM in experiment [4] (Homo sapiens, DU-145); less than 10 nM in [6] (Homo sapiens, MOLT-4); 724 nM in experiment [7] (Homo sapiens, NCI-H23). Moreover, the GI50 in experiment [8] (Homo sapiens, ACHN) is 229 nM; in experiment [9] (Homo sapiens, SF-295), 4900 nM; in [10] (Homo sapiens, HCC 2998), 6030 nM; in experiment [13] (Homo sapiens, OVCAR-8), 759 nM. Besides, the Cytotoxicity result in experiment [17] is on record as “ID50/LD50 = 0.08/>10”. The Activity in [18] was determined as 30%; in [11] it was 26%. The same compound yielded an IC100 in experiment [5] of 100 µM. Further, the Ratio result in experiment [19] was “ID50/LD50 = 0.2/>10”. Moreover, in experiment [16], the LC50 is 81300 nM. Also, the TGI in experiment [12] was 28800 nM.

As for `COc1cc([C@@H]2c3cc4c(cc3[C@@H](NCCNCCO)[C@H]3COC(=O)[C@H]23)OCO4)cc(OC)c1O` [listing 2 of 2 here], the GI50 was 1860 nM in experiment [1]; 4070 nM in experiment [2]; 95.5 nM in experiment [3]; 2290 nM in [4]; 26.9 nM in experiment [6]; 661 nM in experiment [7]. Besides, the GI50 in experiment [8] is 339 nM; in [9], 1020 nM; in experiment [10], 3390 nM; in experiment [13], 2400 nM. The LC50 in experiment [16] is 83200 nM. Besides, the concentration for total growth inhibition (TGI) in experiment [12] was 21400 nM.

Take `COc1cc([C@@H]2c3cc4c(cc3[C@@H](Nc3ccc(NC(=O)c5cc([N+](=O)[O-])cn5C)cc3)[C@H]3COC(=O)[C@H]23)OCO4)cc(OC)c1O` [listing 3 of 3 here]: the GI50 in [1] was 100 nM; in experiment [2], 63.1 nM; in experiment [4], 14.4 nM; in [7] it was 38.9 nM; in experiment [8] it was 14.1 nM; in [9] it was 138 nM. Moreover, the GI50 in [10] is 245 nM; in [13], 126 nM. Besides, in experiment [12], the TGI is 525 nM.

Regarding `CNCCN[C@@H]1c2cc3c(cc2[C@@H](c2cc(OC)c(O)c(OC)c2)[C@H]2C(=O)OC[C@@H]21)OCO3`, the GI50 in experiment [1] is 240 nM; in experiment [2] (Homo sapiens, M14), 398 nM; in experiment [3] (Homo sapiens, MCF7), 14.4 nM; in [4] (Homo sapiens, DU-145) it was 363 nM; in experiment [6] (Homo sapiens, MOLT-4), less than 10 nM; in experiment [7] (Homo sapiens, NCI-H23), 162 nM. Besides, the GI50 is 66.1 nM in [8] (Homo sapiens, ACHN); 29.5 nM in experiment [9] (Homo sapiens, SF-295); 269 nM in experiment [10] (Homo sapiens, HCC 2998); 309 nM in experiment [13] (Homo sapiens, OVCAR-8). Besides, in experiment [16], the LC50 was 38900 nM. In addition, the TGI in experiment [12] was 3020 nM.
